Series [1] is described as follows: Strip test, Screening Composition 3 with Activator 1 / Activator 2 (Examples 11-16). The following applies: FIGS. 5-8; 3 to 5 minutes under UV light. How it is done: Once the urine has been provided, it needs to be cooled to a temperature of 18.3° C. This is the best temperature for testing in this case. When preparing for the test, the urine should be divided into two different groups. The first group is to add Activator 1 and observe the reaction. The second group is to add Activator 2 and observe the reaction.
To perform the Activator 1 test, take approximately 20 ml of urine and add 5 ml of the activator solution. Allow this to sit for 20 minutes under ultraviolet light. Once the 20 minutes has passed, place the strip test under ultraviolet light in a darkened room and apply approximately 1 ml of urine/Activator 1 solution onto the strip test. After the urine/Activator 1 solution has been applied to the strip test, one simply observes the reaction. […]
See FIGS. 5 to 8 for comparisons of presence and absence of the contaminant biomarkers (protein crystals) reaction results. The degree by which fluorescence disappears after initial exposure of urine/activator to the strip test may be used to quantify the relative presence of the factor in the urine. For example, a slow disappearance of fluorescence represents less presence of the pesticide biomarker than a urine/activator sample for which the fluorescence disappears rapidly over the course of the testing procedure.

The nature of series [2]: Strip test, Screening Composition 2 (Examples 6-10): fluorescence under UV after contact with dissolved specimen. Particulars: FIGS. 3-4; observed under UV light, 3 to 5 minutes. The source says:
(§1) Prior to testing, the specimen of substance to be tested is placed directly into a solvent. Preferably, the solvent is a solvent such as distilled or filtered water. If the specimen is in tablet form, it should be crushed into a powder and then added to the solvent. If the specimen is in another form, it is preferably disaggregated into small pieces. The powder or pieces are then left to sit in the solvent until mixed in and/or dissolved for a period ranging from a few seconds to minutes, hours or even days before it may be tested with the composition and/or strip test of the present invention. Preferably, the contact with the solvent is at least eight hours. A liquid or gel form can be put directly into the solvent. […]
For testing, the strip test prepared above is placed under UV light in a room with reduced lighting to allow the reaction to be observed, and is contacted with the specimen of substance prepared above. […] In the presence of a predicted adverse reaction of the substance, the strip test will show the absence of fluorescence or the fluorescence will decrease, or even completely disappear over the short period of time (about 3 to 5 minutes). […]
See FIGS. 3 and 4 for comparisons of adverse and non-adverse reaction results. The degree by which fluorescence disappears after initial exposure to the substance may be used to quantify the relative adverseness of the substance. […]

Series [3] in a line: Strip test screening of various compounds (Example 17, FIGS. 10-11; strip composition not stated). How it is done:
Now referring to FIG. 10, the pain relief medication—ASA, ibuprofen and acetaminophen were screened in the presence of alcohol (Ethanol)—50 ml water and 50 ml of 40% vol/vol ethanol.
Now referring to FIG. 11, various sweetening agents or table salts were dissolved in 75 ml of filtered water and exposed to UV lamp for 3 minutes or 5 minutes.

A short description of series [4]: Strip test, Screening Composition 1 (Examples 1-5): fluorescence under UV after contact with dissolved specimen. Particulars: FIG. 9; increasing amounts dissolved in 50 ml of filtered water; strip test from Example 1.
From the text: as §1, with “of substance is placed” for “of substance to be tested is placed”, “a powder form and then” for “a powder and then”, “is in other form, it” for “is in another form, it”, “disaggregated into smaller pieces. The” for “disaggregated into small pieces. The”, “solvent until dissolved, for a” for “solvent until mixed in and/or dissolved for a”, “a few second to minutes,” for “a few seconds to minutes,”
The contacted test strip is then immediately observed under UV light in a dark room. In the presence of a predicted adverse reaction of the substance, the strip test will show the absence of fluorescence, or the fluorescence will decrease, or even completely disappear over a short period of time (about 90 seconds). […] According to an embodiment, the degree by which fluorescence disappears after initial exposure to the substance may be used to quantify the relative adverseness of the substance. For example, a slow disappearance of fluorescence represents a less adverse substance than a substance for which the fluorescence disappears rapidly over the course of the testing procedure. […]

With `CCOc1nc2cccc(C(=O)O)c2n1Cc1ccc(-c2ccccc2-c2nnn[nH]2)cc1` [candesartan 8 mg, candesartan], the “Strip test appearance (bright yellow glow = does not cause an adverse effect; dark color = may cause an adverse effect)” value in series [1] and in series [2] was “glows a bright yellow color” each time.

Turning to `CC(C)Cc1ccc(C(C)C(=O)O)cc1` (stereo not shown) [ibuprofen], the “Effect of the medication on adverseness in the presence of alcohol (strip test)” value (from here on “Effect of the medication on adverseness”) in series [3] is on record as “diminishes adverseness to varying degrees”. The “Adverseness indicated by strip test” value in series [4] is given as “is not”.

Regarding `CC(=O)Nc1ccc(O)cc1` [acetaminophen], the “Effect of the medication on adverseness” value in series [3] was “diminishes adverseness to varying degrees”.

Consider `[Cl-].[Na+]` [Sodium chloride (iodized), Sodium chloride], for which the “Adverseness / fluorescence indicated by strip test” value in series [3] (FIG. 11, dissolved in 75 ml of filtered water, exposed to UV lamp for 3 minutes or 5 minutes) is “appears to not be adverse”.

Consider `CC(=O)Oc1ccccc1C(=O)O` [ASA], for which the “Effect of the medication on adverseness” value in series [3] is “diminishes adverseness to varying degrees”. Also, in series [4], the “Adverseness indicated by strip test” value is given as “appears to be adverse”.

As for `C[C@H](N)Cc1ccccc1` [Dextroamphetamine XR 5 mg, Dextroamphetamine], the “Strip test appearance (bright yellow glow = does not cause an adverse effect; dark color = may cause an adverse effect)” value in series [1] and in series [2] was “turns a dark color” each time.

On to `CCO` [Alcohol, Ethanol], for which the “Adverseness indicated by strip test, alcohol alone” value in series [3] was “appears to be adverse”.

`OC[C@H]1O[C@H](O[C@]2(CCl)O[C@H](CCl)[C@@H](O)[C@@H]2O)[C@H](O)[C@@H](O)[C@H]1Cl` [Sucralose]: in series [3], the “Adverseness / fluorescence indicated by strip test, 5 minute exposure” value was “depleted fluorescence, indicative of a mild adverse effect” and the “Adverseness indicated by strip test, initially” value is listed as “initially not adverse”.

(Values after patent US9851346B2, “Chemical sensitivity screening test” (BRYSON PATENTS INC., priority 2014, dated 2017).)
